Test system: EAE in C57BL/6 mice
Assay: EAE mouse model (behavioral score, splenic CD4+ T cells, spinal cord histology)
Type: in vivo
Method: Thus, the inventors used the experimental autoimmune encephalomyelitis (EAE) mouse model to study the impact of NAD^+, in vivo, on IL-10, Th1, Th17 and Treg cells in vivo. […] Next, the mechanisms by which NAD^+ protected from EAE in vivo were investigated, in particular its impact on IL-10 cytokine, Th1, Th17 and Tregs. Spleens were isolated from mice treated with NAD^+ or with a placebo solution 15 days after MOG immunization and CD4^+ T cell cytokine expression profile was analyzed by flow cytometry.
To assess the clinical efficacy of NAD^+ as a potential robust therapeutic, a group of mice that developed severe clinical symptoms of EAE (e.g., bilateral hindlimb paresis) was subjected to a daily NAD^+ treatment 15 days after MOG immunization.
Thus, the mechanism of how NAD^− treatment was able to reverse EAE progression was investigated. A previous study reported that nicotinamide (Nam) an NAD biosynthesis precursor can protect from myelin degradation and axon degeneration^43. The results described herein indicate that NAD^+ administered after the disease onset was able to reverse the progression of EAE. Thus, the inventors assessed whether NAD^+ was able to reverse the clinical symptoms of EAE by protecting axon from degeneration and whether NAD^+ had the capacity to promote myelin regeneration. […] Moreover, demyelination and axon loss were assessed with antibodies to myelin basic protein (MBP/SMI-9) and neurofilament (NF200), respectively, in all three groups (FIG. 5A-5F). Consistent with H&E and luxol blue findings, a significant reduction in both MBP staining depicting demyelination and axon loss evidenced by reduced NF 200 staining was very prominent in the group of mice treated with a placebo solution (FIG. 5A and 5D) when compared to the daily NAD^| treated group (FIG. 5B and 5E) and with mice treated with NAD+ after develop hindlimb paralysis (15 days after MOG immunization) (FIG. 5C and 5F).
EAE was induced in 10-week-old C57BL/6 mice using Hooke Labs EAE induction kit (EK-2110) according to manufacturer's instructions. […] For NAD^+ treatment mice received a daily intraperitoneal injection (60 mg in 100 μl in PBS) or a placebo solution (100 μl of PBS) at the same day than MOG immunization. Mice were sacrificed at day 18 and single cell suspension was obtained from spleens for flow cytometry analysis. To test whether NAD^+ was able to reverse the development of EAE, another group of mice was treated daily (for a period of 10 days) with NAD^+ (60 mg/mouse) or a placebo solution 15 days after MOG immunization when mice were scored 3 with a bilateral hindlimb paresis. EAE disease progression was monitored. For Tph-1 or CA3 inhibition, mice received daily intraperitoneal injections (simultaneous to NAD^−) of p-Chlorophenylalanine (1 ml of a 10 mM solution stock, catalog number 0938, Tocris Bioscience) or N-[[[(1S)-1-Carboxy-3-methylbutyl]amino]carbonyl]-L-glutamic acid (100 μl of a 100 mM solution stock, ZJ 43 catalog number 2675,Tocris Bioscience), respectively.

[1] = MOG-immunized mice, daily i.p. NAD+ from day of immunization
[2] = daily NAD+ and NAD+ from 15 days after MOG immunization
[3] = spleen, EAE mice, daily NAD+ vs placebo, flow cytometry

Compound: NC(=O)c1ccc[n+]([C@@H]2O[C@H](COP(=O)([O-])OP(=O)(O)OC[C@H]3O[C@@H](n4cnc5c(N)ncnc54)[C@H](O)[C@@H]3O)[C@@H](O)[C@H]2O)c1 [NAD+, nicotinamide adenine dinucleotide]
- spinal cord inflammatory infiltrate, myelin loss and axonal injury (LFB and H&E stainings) (EAE mice treated daily with NAD+): remained free of inflammatory infiltrate, myelin loss, and axonal injury
- EAE (behavioral score) [1]: protected against EAE
- paralysis [1]: no sign of paralysis
- spinal cord inflammatory infiltrate, myelin loss and axonal injury (LFB and H&E stainings) (NAD+ started 15 days after MOG immunization (after hindlimb paralysis)): did not show inflammatory infiltrate, myelin loss, and axonal injury
- myelination positive area (MBP), spinal cord [2]: significant protection and recovery
- neurofilament positive area (NF200), spinal cord [2]: significant protection and recovery
- time of treatment until bilateral hindlimb paresis abolished (daily NAD+ started 15 days after MOG immunization): ≤ 10 days
- progression of EAE (daily NAD+ started 15 days after MOG immunization (bilateral hindlimb paresis), vs placebo): reversed the progression of the disease
- development of EAE (daily NAD+, after 25 days): did not develop EAE
- systemic IL-10 cytokine production by CD4+IFNγ+ cells (spleen, EAE mice, daily NAD+ vs control group, flow cytometry): dramatically enhanced
- IFNγ production by CD4+ T cells [3]: promoted
- Th17 response [3]: promoted a robust Th17 response
- number of CD4+CD25+Foxp3+ cells [3]: reduced
